For one test, the target named is D3 (Homo sapiens, UniProt P35462). Description: Radioligand competition binding, D3. The following applies: Table 5; Cheng-Prusoff from best fit IC50; one value marked (AVE).
In the next test the target is 5-HT2B (Homo sapiens, UniProt P41595). In words: Radioligand competition binding, 5-HT2B. As to conditions: Table 5; Cheng-Prusoff from best fit IC50. A general note: In a radioligand displacement assay an active substance lowers the binding of a labelled ligand.
Another test deals with 5-HT6 (Homo sapiens, UniProt P50406). Description: Radioligand competition binding, 5-HT6. As to conditions: Table 5; Cheng-Prusoff from best fit IC50.
The next test addresses D1 (Homo sapiens, UniProt P21728). Description: Radioligand competition binding, D1. The following applies: Table 5; Cheng-Prusoff from best fit IC50; some values marked (AVE).
Another test deals with 5-HT2A (Homo sapiens, UniProt P28223). Description: Radioligand competition binding, 5-HT2A. As to conditions: Table 5; Cheng-Prusoff from best fit IC50.
Another test has as its target SERT (Homo sapiens, UniProt P31645). In words: Radioligand competition binding, SERT. The following applies: Table 5; Cheng-Prusoff from best fit IC50.
The target of another test is 5-HT1D (Homo sapiens, UniProt P28221). Description: Radioligand competition binding, 5-HT1D. The following applies: Table 5; Cheng-Prusoff from best fit IC50.
For a further test, the target named is T1, 5-HT2C (Homo sapiens, UniProt P28335).
T1 sequence (P28335 33-458): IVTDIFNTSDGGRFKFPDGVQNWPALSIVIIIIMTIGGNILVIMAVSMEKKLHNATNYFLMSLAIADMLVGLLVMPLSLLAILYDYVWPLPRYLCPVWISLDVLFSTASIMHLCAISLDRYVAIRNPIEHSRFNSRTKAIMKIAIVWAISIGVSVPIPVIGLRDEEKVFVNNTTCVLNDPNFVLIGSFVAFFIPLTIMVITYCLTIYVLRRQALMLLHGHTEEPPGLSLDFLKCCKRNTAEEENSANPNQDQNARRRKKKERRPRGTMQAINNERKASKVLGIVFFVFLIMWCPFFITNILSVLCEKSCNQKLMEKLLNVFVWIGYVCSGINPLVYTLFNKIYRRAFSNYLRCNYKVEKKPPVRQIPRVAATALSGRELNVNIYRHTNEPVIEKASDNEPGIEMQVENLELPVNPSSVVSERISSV
Description: Radioligand competition binding, 5-HT2C. As to conditions: Table 5; Cheng-Prusoff from best fit IC50.

For a further test, the target named is H2 (Homo sapiens, UniProt P25021). In words: Radioligand competition binding, H2. The following applies: Table 5; Cheng-Prusoff from best fit IC50.
The target in the next test is 5-HT7 (Homo sapiens, UniProt P34969). Description: Radioligand competition binding, 5-HT7. As to conditions: Table 5; Cheng-Prusoff from best fit IC50.
In another test the target is T2, 5-HT1A (Homo sapiens, UniProt P08908).
T2 sequence (P08908 1-422): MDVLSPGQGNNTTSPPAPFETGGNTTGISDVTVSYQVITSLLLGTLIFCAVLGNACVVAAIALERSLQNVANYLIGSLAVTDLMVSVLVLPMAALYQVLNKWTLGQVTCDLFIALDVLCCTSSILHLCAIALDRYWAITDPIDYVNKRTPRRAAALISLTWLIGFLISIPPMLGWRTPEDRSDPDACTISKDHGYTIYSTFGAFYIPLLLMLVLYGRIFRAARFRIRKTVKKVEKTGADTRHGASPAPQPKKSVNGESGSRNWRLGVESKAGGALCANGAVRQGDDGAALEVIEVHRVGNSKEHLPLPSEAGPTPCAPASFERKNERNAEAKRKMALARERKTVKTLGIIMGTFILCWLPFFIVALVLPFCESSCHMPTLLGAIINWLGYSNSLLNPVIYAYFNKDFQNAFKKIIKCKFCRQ
In words: Radioligand competition binding, 5-HT1A. The following applies: Table 5; Cheng-Prusoff from best fit IC50.

The target in another test is 5-HT1B (Homo sapiens, UniProt P28222). In words: Radioligand competition binding, 5-HT1B. The following applies: Table 5; Cheng-Prusoff from best fit IC50.
In a further test the target is 5-ht5a (Homo sapiens, UniProt P47898). In words: Radioligand competition binding, 5-ht5a. The following applies: Table 5; Cheng-Prusoff from best fit IC50.
For a further test, the target named is sigma 2 receptor (Homo sapiens, UniProt Q5BJF2). Description: Sigma 2 receptor radioligand competition binding.
Another test concerns the target M4 (Homo sapiens, UniProt P08173). Description: Radioligand competition binding, M4. As to conditions: Table 5; Cheng-Prusoff from best fit IC50; one value marked (AVE).
The target of a further test is PBR (UniProt P16257). In words: Radioligand competition binding, PBR. As to conditions: Table 5; Cheng-Prusoff from best fit IC50; one value marked (AVE).
Another test has as its target sigma 1 receptor (Homo sapiens, UniProt Q99720). Description: Sigma 1 receptor radioligand competition binding. The following applies: Table 1, 7-piperazinyl-tetrahydronaphthalene analogs; read-out: Ki (nM) Sig1R.
A further test addresses T3, D4 (Homo sapiens, UniProt P21917).
T3 sequence (P21917 1-419): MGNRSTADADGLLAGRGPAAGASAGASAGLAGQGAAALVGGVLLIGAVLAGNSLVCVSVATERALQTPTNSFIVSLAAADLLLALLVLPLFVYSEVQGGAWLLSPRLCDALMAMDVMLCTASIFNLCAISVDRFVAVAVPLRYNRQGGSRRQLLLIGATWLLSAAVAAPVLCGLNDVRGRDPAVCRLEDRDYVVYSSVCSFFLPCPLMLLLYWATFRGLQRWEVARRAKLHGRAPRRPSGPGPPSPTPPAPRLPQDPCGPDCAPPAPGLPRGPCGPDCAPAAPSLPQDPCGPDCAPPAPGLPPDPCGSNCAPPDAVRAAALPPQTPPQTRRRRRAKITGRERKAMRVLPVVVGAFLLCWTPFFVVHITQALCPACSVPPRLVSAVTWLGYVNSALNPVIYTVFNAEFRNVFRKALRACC
In words: Radioligand competition binding, D4. The following applies: Table 5; Cheng-Prusoff from best fit IC50.

Another test concerns the target KOR (Homo sapiens, UniProt P41145). In words: Radioligand competition binding, KOR. As to conditions: Table 5; Cheng-Prusoff from best fit IC50; some values marked (AVE).

Where two headings read alike, the source gives them in different places. A value given as a limit tells only on which side of the number the result lay.

For orientation: Ki means the dissociation constant of the complex between target and ligand, obtained from inhibition or displacement.

Regarding `CCN(CC)C(=O)CCN1CCN(c2ccc3c(c2)C(N(C)C(=O)OCc2ccccc2)CCC3)CC1` (stereo not drawn) [MDW-1-213, Benzyl (7-(4-(3-(diethylamino)-3-oxopropyl)piperazin-1-yl)-1,2,3,4-tetrahydronaphthalen-1-yl)(methyl)carbamate], the Ki is 852 nM at D3; 692 nM at 5-HT2B; 932 nM at 5-HT6; 4.05 µM at D1; 957 nM at 5-HT2A; above 10 µM on SERT. In addition, the inhibition constant Ki on 5-HT1D was found to be 1360 nM; on 5-HT2C, 2630 nM; on H2, 333 nM; at 5-HT7, 828 nM; on 5-HT1A, 335 nM; at 5-HT1B, 317 nM. Besides, the inhibition constant (Ki) on 5-ht5a amounted to 1880 nM; at sigma 2 receptor (Table 1, 7-piperazinyl-tetrahydronaphthalene analogs, read-out: Ki (nM) Sig2R), 7 nM; at sigma 2 receptor (Table 5, Cheng-Prusoff from best fit IC50, read-out: Ki Sigma 2), 7.2 nM; on M4 it was 3.28 µM; at PBR it was 1200 nM; at sigma 1 receptor, 2100 nM. Also, the figures for the Ki on D4 and on KOR were 319 nM and 5.35 µM, respectively. In addition, at sigma 2 receptor (Table 1, ratio of Sig1R Ki to Sig2R Ki), the “Ki ratio Sig1R/Sig2R” value is recorded as 292.

For the origin of these results see patent US20210323913A1, “SIGMA RECEPTOR BINDERS” (BOARD OF REGENTS, THE UNIVERSITY OF TEXAS SYSTEM, priority 2016, published 2021).
